Series [1] concerns fatty liver mouse model. Nature of the series: Immunohistochemical analysis of liver tissue (Sirius red, a-SMA), fatty liver mouse model. It counts as in vivo, C57BL/6 mice. As to conditions: 50 mg/kg oral, FIG. 6. As to the method:
(§1) Twenty-four 6-week-old C57BL/6 mice were acclimated for 1 week and then divided into two groups. One group (12 mice) was fed a normal diet, and the other group (12 mice) was fed a high-fat diet for 9 weeks. After 9 weeks, each of the normal diet group and the high-fat diet group was subdivided into two groups, and each of vehicle and 50 mg/kg of ML323 was orally administered thereto twice a week for 7 weeks. Normal diet and high-fat diet were continued during oral administration.
The liver tissue harvested from each mouse was fixed in a 10% formalin solution, and a paraffin block and a slide were prepared using each liver tissue that had been fixed. The degree of fibrosis in liver tissue was measured using Sirius red solution staining and a-SMA immunostaining.

The test system of a further series is TGF-β. Nature of the series: Expression of inflammatory factors in liver tissue (real-time PCR): TGF-β. The class given is in vivo, C57BL/6 mice. The note with it: high-fat diet group, 50 mg/kg oral, versus control group, FIG. 5B. As to the method:
as §1
(§2) The tissue harvested from each mouse was added to 1 ml of Easy blue (Intron) and then minced using a homogenizer. 200 μl of chloroform was added to and mixed well with the tissue, and the mixture was incubated for 3 minutes and then centrifuged at 13,200 rpm for 15 minutes at 4° C. After centrifugation, only the supernatant was transferred to a fresh tube, and the same amount of isopropyl alcohol was added thereto and mixed well therewith. After incubation for 10 minutes, centrifugation was performed at 13,200 rpm for 10 minutes at 4° C. After removing the supernatant, the RNA pellet was washed with 70% ethanol and centrifuged at 13,200 rpm for 5 minutes at 4° C. […]
(§3) cDNA was synthesized from the extracted RNA using ReverTraAce RT master mix (TOYOBO), and then gene expression changes were measured using a real-time PCR system (ABI).
A general note: Quantitative PCR measures a nucleic acid by following its amplification.

For series [2], the system named is COL1A1. Put plainly: Measurement of cell fibrosis: COL1A1 mRNA in TGF-β-activated LX-2 cells. It counts as cell-based, Human. The note with it: TGF-β 2.5 ng/ml, ML323 1, 10, 25 μM, 24 hours, versus cells not treated with ML323, FIG. 2. As to the method: Human hepatic stellate LX-2 cells were seeded in a 6-well plate with DMEM (Welgene) containing 2% fetal bovine serum (Gibco) and 1% penicillin-streptomycin (Gibco), and cultured in an incubator for 24 hours at 37° C. under 5% CO2. Thereafter, the medium was replaced with serum-free DMEM, and the cells were starved for 24 hours. Next, the cells were activated by treatment with TGF-β at a concentration of 2.5 ng/ml, and at the same time, the cells were treated with ML323 at concentrations of 0, 1, 10 and 25 μM. After 24 hours, the cells were harvested and used for gene expression analysis.
as §3

The subject of the next series is CDAA diet mice. Put plainly: Immunohistochemical analysis of liver tissue (H&E, F4/80, a-SMA), CDAA diet non-alcoholic fatty liver model. The class given is in vivo, C57BL/6 mice. The note with it: CDAA diet group, 50 mg/kg oral, FIG. 7. As to the method: In addition, ten 6-week-old C57BL/6 mice were acclimated for 1 week and then fed CDAA (choline-deficient L-amino-defined) for 8 weeks to induce non-alcoholic fatty liver. Thereafter, the 10 mice were divided into two groups, to which a vehicle and 50 mg/kg of ML-323 were orally administered, respectively, and then liver tissues were stained with H&E, F4/80, and a-SMA.

Series [3] deals with Human hepatic stellate LX-2 cells. Put plainly: Cytotoxicity measurement (WST assay). It counts as cell-based. As to conditions: 48 hours. As to the method:
Human hepatic stellate LX-2 cells were seeded in a 96-well plate with DMEM (Welgene) containing 2% fetal bovine serum (Gibco) and 1% penicillin-streptomycin (Gibco), and cultured in an incubator for 24 hours at 37° C. under 5% CO2. Next, the cells were treated with ML323 at concentrations of 0, 1, 5, 10 and 25 μM. After 48 hours, 10 μl of EZ-Cytox was added to the cell culture medium and reacted for 30 minutes, and the absorbance at 450 nm was measured using a microplate reader.
Cytotoxicity measurement (WST assay)

For series [4], the system named is fatty liver mouse model. Nature of the series: Measurement of liver weight change in fatty liver mouse model. The note with it: 50 mg/kg oral twice a week for 7 weeks, FIG. 3. It counts as in vivo, C57BL/6 mice. As to the method:
as §1
After the experimental period was over, mice were sacrificed, and liver tissues were harvested and weighed.

For a further series, the system named is CCL2. Put plainly: Expression of inflammatory factors in liver tissue (real-time PCR): CCL2. It counts as in vivo, C57BL/6 mice. As to conditions: high-fat diet group, 50 mg/kg oral, versus control group, FIG. 5B. As to the method: as §1, §2, §3
Series [5] concerns fatty liver mouse model. Put plainly: Measurement of liver function indicators (AST, ALT) in blood. It counts as in vivo, C57BL/6 mice. The note with it: high-fat diet group, 50 mg/kg oral twice a week for 7 weeks, versus vehicle-administered control group, FIG. 4. As to the method: as §1
After the experimental period was over, blood was collected from each mouse, and after 30 minutes, the supernatant (plasma) was separated from the blood by centrifugation at 2,000 rpm for 15 minutes. The separated plasma was analyzed by Seoul Clinical Laboratories (SCL) to measure the levels of AST and ALT, which are indicators of liver function.

Series [6] concerns COL1A1. Nature of the series: Expression of hepatic fibrosis inducers in liver tissue (real-time PCR): COL1A1. It counts as in vivo, C57BL/6 mice. The note with it: high-fat diet group, 50 mg/kg oral, FIG. 5A. As to the method: as §1, §2, §3
The subject of another series is F4/80. Nature of the series: Expression of inflammatory factors in liver tissue (real-time PCR): F4/80. It counts as in vivo, C57BL/6 mice. The note with it: high-fat diet group, 50 mg/kg oral, versus control group, FIG. 5B. As to the method:
as §1, §2, §3

In the case of `Cc1cnc(-c2ccccc2C(C)C)nc1NCc1ccc(-n2ccnn2)cc1` [ML323, N-(4-(1H-1,2,3-triazol-1-yl)benzyl)-2-(24 sopropylphenyl)-5-methylpyrimidin-4-amine], the “hepatic fibrosis in liver tissue (Sirius red staining and a-SMA immunostaining)” value in the series on fatty liver mouse model [1] is given as “significantly decreased”. Further, the “mRNA expression level of TGF-β in liver tissue” value in the series with TGF-β is listed as “significantly decreased”. In the series with COL1A1 [2], the “mRNA expression of COL1A1” value is “significantly lower”. The “inflammation and hepatic fibrosis in liver tissue (H&E staining, f4/80 and a-SMA immunostaining)” value with CDAA diet mice is “significantly decreased”. Besides, the “viability of LX-2 cells versus untreated cells” value in [3] (0, 1, 5, 10 and 25 μM, FIG. 1) was “no significant difference in viability”. Also, the cytotoxicity result in series [3] (all treatment concentrations (up to 25 μM)) was “did not exhibit cytotoxicity”. In addition, the liver weight entry in the series with fatty liver mouse model [4] (high-fat diet group) is “decreased”. For the same compound, the “accumulation of fat in liver tissue” value in the series with fatty liver mouse model [4] (high-fat diet group, versus control group) was “significantly decreased”. Also, in the series with fatty liver mouse model [4] (normal diet group, versus control group), the “liver weight or size” value is listed as “no significant difference in liver weight or size”. Also, in the series with CCL2, the “mRNA expression level of CCL2 in liver tissue” value was “significantly decreased”. Besides, in the series on fatty liver mouse model [5], the “decrease of ALT level in the blood” value was 70% and the “decrease of AST level in the blood” value turned out to be 40%. The “mRNA expression level of the COL1A1 gene in liver tissue” value with COL1A1 [6] was “greatly decreased”. Besides, the “mRNA expression level of F4/80 in liver tissue” value in the series on F4/80 is listed as “significantly decreased”.

For the origin of these results see patent US20230310431A1, “COMPOSITION FOR PREVENTING OR TREATING LIVER FIBROSIS, CONTAINING TRIAZOLE DERIVATIVE AS ACTIVE INGREDIENT” (INDUSTRY-ACADEMIC COOPERATION FOUNDTION, YONSEI UNIVERSITY, priority 2020, published 2023).
